One experiment deals with T1, CyclinE1/CDK2 (Homo sapiens, UniProt P24864).
T1 construct: purchased Eurofins, discovery 14-475
The experiment can be described thus: Fluorescence Polarization (FP) competitive binding assay, Cyclin E1/Cdk2.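 Note: readings taken after two-hour equilibration at room temperature in HEPES buffer with NaCl, DTT, NP-40 and BSA, IC50 fitted from eight-concentration serial dilution series.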 To be noted: 10 nM Cyclin E1/Cdk2, 2 nM FAM probe; average of 2-3 independent experiments; read-out: Cyclin E FP IC50.

A further experiment has as its system OVCAR3 cells. The experiment can be described thus: MTT proliferation assay, OVCAR3.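 Note: compound given as an 8- or 10-point series, one day after plating, with exposure covering roughly 3-4 cell doublings.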 Type of experiment: cell-based. To be noted: 5 days compound exposure, 1:3 serial dilution starting at 10 μM.
In the next experiment the target is T2, CyclinA2/CDK2 (Homo sapiens, UniProt P20248).
T2 construct: purchased CRELUX Protein Services
The experiment in a line: Fluorescence Polarization (FP) competitive binding assay, Cyclin A2/Cdk2.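 Note: plates equilibrated two hours at room temperature before polarization reading, IC50 fitted from eight-concentration compound titration curves.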 To be noted: 8 nM Cyclin A2/Cdk2, 2 nM FAM probe; average of 2-3 independent experiments; read-out: Cyclin A FP IC50.

Another experiment has as its system NCI-H1048 cells. The experiment in a line: MTT proliferation assay, NCI-H1048.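 Note: Dose-response in 96-well plates over 8 or 10 concentration points, with exposure spanning 3-4 cell doublings.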 It counts as cell-based. To be noted: 5 days compound exposure, 1:3 serial dilution starting at 10 μM.
The target in the next experiment is T3, CyclinB1/CDK1 (Homo sapiens, UniProt P14635).
T3 construct: purchased Eurofins, discovery 14-450
The experiment in a line: Fluorescence Polarization (FP) competitive binding assay, Cyclin B1/Cdk1.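 Note: fluorescence polarization read after equilibration at room temperature, with IC50 taken from serially diluted dose-response curves.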 To be noted: 10 nM Cyclin B1/Cdk1, 2 nM FAM probe; average of 2-3 independent experiments; read-out: Cyclin B FP IC50.

*1 amine or outer side, *2 acyl side, *3 side chain or, on linkers, in order; H or OH if unused. Where a SMILES comes first, the peptide text is derived from it. Bridges are numbered along the chain shown (N, C = ends). [ ]: non-standard residue; d: D form. The star is where a group is joined. NMe(hhhLys) = CN([C@@H](CCCCCCCN[*:3])C(=O)[*:2])[*:1]; Cyclopropanecarbonyl(1-CF3) = O=C(C1(C(F)(F)F)CC1)*; NMePhe(2,5-Cl2) = CN[C@@H](Cc1cc(Cl)ccc1Cl)C(=O)O; Pro(trans-4-F) = O=C(O)[C@@H]1C[C@@H](F)CN1; X155 = C[C@@](O)(C(=O)*)C(F)(F)F; Gly(cPr) = N[C@H](C(=O)O)C1CC1

As to `CC(C)C[C@@H]1NC(=O)[C@@H](N(C)C(=O)[C@@H](NC(=O)[C@@H]2C[C@@H](F)CN2C(=O)C2(C(F)(F)F)CC(F)(F)C2)C2CC2)CC=CCCCCNC(=O)[C@H](Cc2cc(Cl)cnc2OC2CC2)N(C)C1=O` (single isomer, unassigned) [Example 102-P1], the IC50 was determined as 1110 nM at CyclinE1/CDK2, 310 nM on CyclinA2/CDK2 and 20 nM on CyclinB1/CDK1. The GI50 is 810 nM with OVCAR3 cells and 350 nM in the experiment on NCI-H1048 cells.
For the molecule `CC(C)C[C@@H]1NC(=O)[C@@H](N(C)C(=O)[C@@H](NC(=O)[C@@H]2C[C@@H](F)CN2C(=O)C2(C(F)(F)F)CC(F)(F)C2)C2CC2)CC=CCCCCNC(=O)[C@H](Cc2cc(Cl)cnc2OC2CC2)N(C)C1=O` (single isomer, unassigned) [Example 102-P2], the IC50 at CyclinE1/CDK2 came out at 310 nM; at CyclinA2/CDK2 it was 120 nM; at CyclinB1/CDK1, 20 nM. For the same molecule, the values for the GI50 in the experiment with OVCAR3 cells and in the experiment with NCI-H1048 cells were 130 nM and 80 nM, respectively.
In the same order, the values of `CC(C)C[C@@H]1NC(=O)[C@@H](N(C)C(=O)[C@@H](NC(=O)[C@@H]2C[C@@H](F)CN2C(=O)C2(C(F)(F)F)CCC2)C2CC2)CC=CCCCCNC(=O)[C@H](Cc2cc(Cl)cnc2OC2CC2)N(C)C1=O` (single isomer, unassigned) [Example 107-P2] are 180 nM, 110 nM, 20 nM, 320 nM and 190 nM.
The matching figures for `Cc1nnc(-c2ccc(Cl)cc2C[C@H]2C(=O)NCCCCC=CC[C@H](N(C)C(=O)[C@@H](NC(=O)[C@@H]3C[C@@H](F)CN3C(=O)C3(C(F)(F)F)CCC3)C3CC3)C(=O)N[C@@H](CC(C)C)C(=O)N2C)o1` (single isomer, unassigned) [Example 117-P1]: 340 nM, 80 nM, 20 nM, 180 nM and 230 nM.
As to `Cc1nnc(-c2ccc(Cl)cc2C[C@H]2C(=O)NCCCCC=CC[C@H](N(C)C(=O)[C@@H](NC(=O)[C@@H]3C[C@@H](F)CN3C(=O)C3(C(F)(F)F)CCC3)C3CC3)C(=O)N[C@@H](CC(C)C)C(=O)N2C)o1` (single isomer, unassigned) [Example 117-P2], the IC50 was determined as 160 nM at CyclinE1/CDK2, 60 nM at CyclinA2/CDK2 and 20 nM at CyclinB1/CDK1. Also, the GI50 with OVCAR3 cells stood at 60 nM; in the experiment with NCI-H1048 cells it was 90 nM.
Regarding `Cc1nnc(-c2ccc(Cl)cc2C[C@H]2C(=O)NCCCCC=CC[C@H](N(C)C(=O)[C@@H](NC(=O)[C@@H]3C[C@@H](F)CN3C(=O)C3(C(F)(F)F)CC(F)(F)C3)C3CC3)C(=O)N[C@@H](CC(C)C)C(=O)N2C)o1` (single isomer, unassigned) [Example 118-P1], the IC50 was 740 nM at CyclinE1/CDK2, 110 nM on CyclinA2/CDK2 and 20 nM at CyclinB1/CDK1. The GI50 in the experiment on OVCAR3 cells was 170 nM; in the experiment on NCI-H1048 cells it was 180 nM.
For the molecule `Cc1nnc(-c2ccc(Cl)cc2C[C@H]2C(=O)NCCCCC=CC[C@H](N(C)C(=O)[C@@H](NC(=O)[C@@H]3C[C@@H](F)CN3C(=O)C3(C(F)(F)F)CC(F)(F)C3)C3CC3)C(=O)N[C@@H](CC(C)C)C(=O)N2C)o1` (single isomer, unassigned) [Example 118-P2], the concentration for half-maximal inhibition (IC50) amounted to 300 nM on CyclinE1/CDK2, 60 nM at CyclinA2/CDK2 and 20 nM on CyclinB1/CDK1. Moreover, the GI50 in the experiment on OVCAR3 cells and in the experiment on NCI-H1048 cells was 50 nM each time.
For the molecule `CC(C)C[C@@H]1NC(=O)[C@@H](N(C)C(=O)[C@@H](NC(=O)[C@@H]2C[C@@H](F)CN2C(=O)C2(C(F)(F)F)CCC2)C2CC2)CC=CCCCCNC(=O)[C@H](Cc2cc(Cl)ccc2Oc2ncccn2)N(C)C1=O` (single isomer, unassigned) [Example 156-P1], the IC50 was 830 nM at CyclinE1/CDK2, 890 nM on CyclinA2/CDK2 and 20 nM on CyclinB1/CDK1. Besides, the 50% growth inhibitory concentration (GI50) turned out to be 530 nM in the experiment on OVCAR3 cells and 480 nM in the experiment with NCI-H1048 cells.
Turning to `CC(C)C[C@@H]1NC(=O)[C@@H](N(C)C(=O)[C@@H](NC(=O)[C@@H]2C[C@@H](F)CN2C(=O)C2(C(F)(F)F)CCC2)C2CC2)CC=CCCCCNC(=O)[C@H](Cc2cc(Cl)ccc2Oc2ncccn2)N(C)C1=O` (single isomer, unassigned) [Example 156-P2], the IC50 on CyclinE1/CDK2 worked out at 240 nM; on CyclinA2/CDK2, 350 nM; on CyclinB1/CDK1, 20 nM. Further, the GI50 came out at 100 nM with OVCAR3 cells and 90 nM in the experiment on NCI-H1048 cells.
Regarding `CC[C@H](NC(=O)[C@@H]1C[C@@H](F)CN1C(=O)C1(C(F)(F)F)CC1)C(=O)N[C@H]1CC=CCCCCNC(=O)[C@H](Cc2cc(Cl)ccc2Cl)N(C)C(=O)[C@H](CC(C)C)NC1=O` [Example 2], the half-inhibitory concentration (IC50) at CyclinE1/CDK2 was found to be 100 nM; on CyclinA2/CDK2, 110 nM; at CyclinB1/CDK1, 20 nM. Also, the figures for the GI50 in the experiment with OVCAR3 cells and in the experiment with NCI-H1048 cells were 410 nM and 380 nM, respectively.
For `CC(C)C[C@@H]1NC(=O)[C@@H](NC(=O)CNC(=O)[C@@H]2C[C@@H](F)CN2C(=O)C2(C(F)(F)F)CC2)CC=CCCCCNC(=O)[C@H](Cc2cc(Cl)ccc2Cl)N(C)C1=O` [Example 3], the IC50 on CyclinE1/CDK2 is 680 nM; at CyclinA2/CDK2, 620 nM; at CyclinB1/CDK1, 20 nM. The values for the concentration for 50% growth inhibition (GI50) in the experiment on OVCAR3 cells and with NCI-H1048 cells were 720 nM and 460 nM, respectively.
Regarding `CC(C)C[C@@H]1NC(=O)[C@@H](NC(=O)[C@@H](NC(=O)[C@@H]2C[C@@H](F)CN2C(=O)C2(C(F)(F)F)CC(F)(F)C2)C2CC2)CC=CCCCCNC(=O)[C@H](Cc2cc(Cl)ccc2Cl)N(C)C1=O` [Example 4], the IC50 on CyclinE1/CDK2 stood at 100 nM; on CyclinA2/CDK2, 90 nM; at CyclinB1/CDK1, 20 nM. In addition, the GI50 came out at 60 nM with OVCAR3 cells and 120 nM in the experiment on NCI-H1048 cells.
In the case of `CC(C)C[C@@H]1NC(=O)[C@@H](NC(=O)[C@@H](NC(=O)[C@@H]2C[C@@H](F)CN2C(=O)C2(C(F)(F)F)CC(F)(F)C2)C2CC2)CCCCCCCNC(=O)[C@H](Cc2cc(Cl)ccc2Cl)N(C)C1=O` [Example 8], the IC50 at CyclinE1/CDK2 is 100 nM; at CyclinA2/CDK2 it was 30 nM; at CyclinB1/CDK1, 20 nM. The GI50 with OVCAR3 cells worked out at 30 nM; in the experiment with NCI-H1048 cells it was 20 nM.
With `CC(C)C[C@@H]1NC(=O)[C@@H](N(C)C(=O)[C@@H](NC(=O)[C@@H]2C[C@@H](F)CN2C(=O)C2(C(F)(F)F)CC2)C2CC2)CCCCCCCNC(=O)[C@H](Cc2cc(Cl)ccc2Cl)N(C)C1=O` [Example 9] ({Cyclopropanecarbonyl(1-CF3)}-[Pro(trans-4-F)][Gly(cPr)][NMe(hhhLys)]L[NMePhe(2,5-Cl2)]; lactam 3-C), the IC50 was found to be 400 nM at CyclinE1/CDK2, 250 nM on CyclinA2/CDK2 and 20 nM at CyclinB1/CDK1. Further, the figures for the GI50 with OVCAR3 cells and in the experiment with NCI-H1048 cells were 110 nM and 80 nM, respectively.
The matching figures for `CC(C)C[C@@H]1NC(=O)[C@@H](N(C)C(=O)[C@@H](NC(=O)[C@@H]2C[C@@H](F)CN2C(=O)[C@@](C)(O)C(F)(F)F)C2CC2)CCCCCCCNC(=O)[C@H](Cc2cc(Cl)ccc2Cl)N(C)C1=O` [Example 10] (X155-[Pro(trans-4-F)][Gly(cPr)][NMe(hhhLys)]L[NMePhe(2,5-Cl2)]; lactam 3-C): 120 nM, 100 nM, 20 nM, 30 nM and 20 nM.

The values are drawn from patent publication US20240408169A1 (priority 2023, published 2024).
